ChEMBL document CHEMBL3813680, “Discovery of a 2-hydroxyacetophenone derivative as an outstanding linker to enhance potency and β-selectivity of liver X receptor agonist” (Bioorg Med Chem, 2016)
Active and inactive are the calls of the source. The calls are words filed in the database; no cut-off is given here.

Key:
[1] = biological target: T1, Oxysterols receptor LXR-alpha (Homo sapiens, UniProt Q13133); assay: Agonist activity at GAL4 fused LXRalpha (unknown origin) transfected in CHOK1 cells after 24 hrs by luciferase reporter gene assay
T1 sequence (Q13133 whole entry): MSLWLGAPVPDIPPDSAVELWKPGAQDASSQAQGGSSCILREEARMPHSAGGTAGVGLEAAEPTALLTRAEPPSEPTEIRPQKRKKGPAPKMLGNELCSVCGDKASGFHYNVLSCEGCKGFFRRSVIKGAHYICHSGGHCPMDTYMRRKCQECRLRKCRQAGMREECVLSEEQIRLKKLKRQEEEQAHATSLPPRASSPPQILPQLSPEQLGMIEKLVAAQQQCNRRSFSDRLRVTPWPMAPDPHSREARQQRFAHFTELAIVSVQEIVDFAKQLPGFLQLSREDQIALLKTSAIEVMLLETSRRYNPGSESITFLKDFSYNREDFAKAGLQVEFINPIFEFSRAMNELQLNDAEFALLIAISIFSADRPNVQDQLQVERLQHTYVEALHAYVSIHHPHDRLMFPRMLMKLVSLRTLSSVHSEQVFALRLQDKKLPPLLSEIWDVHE

[2] = Intrinsic clearance in mouse liver microsomes at 1 umol/L; type: ADME; details: read-out: CLH
[3] = biological target: T2, Oxysterols receptor LXR-beta (Homo sapiens, UniProt P55055); assay: Agonist activity at GAL4 fused LXRbeta-LBD (unknown origin) transfected in CHOK1 cells after 24 hrs by luciferase reporter gene assay
T2 sequence (P55055 whole entry): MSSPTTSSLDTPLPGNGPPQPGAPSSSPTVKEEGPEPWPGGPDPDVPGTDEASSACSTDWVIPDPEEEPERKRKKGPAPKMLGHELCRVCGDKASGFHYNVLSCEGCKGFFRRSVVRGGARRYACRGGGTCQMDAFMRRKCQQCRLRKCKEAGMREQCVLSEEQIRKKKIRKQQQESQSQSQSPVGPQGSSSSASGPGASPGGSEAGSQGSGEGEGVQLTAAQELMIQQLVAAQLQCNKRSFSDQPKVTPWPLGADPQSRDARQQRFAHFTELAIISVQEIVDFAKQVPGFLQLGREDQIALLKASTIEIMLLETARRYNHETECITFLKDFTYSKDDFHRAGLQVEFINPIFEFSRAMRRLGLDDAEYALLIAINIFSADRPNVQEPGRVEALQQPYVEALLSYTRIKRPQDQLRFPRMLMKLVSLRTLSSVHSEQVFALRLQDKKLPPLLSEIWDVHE

[4] = Intrinsic clearance in human liver microsomes at 1 umol/L; type: ADME; details: read-out: CLH
[5] = Intrinsic clearance in hamster liver microsomes at 1 umol/L; type: ADME; details: cricetinae, read-out: CLH
CHO-K1 = assay: Selectivity ratio of EC50 for GAL4 fused LXRalpha (unknown origin) transfected in CHOK1 cells to EC50 for GAL4 fused LXRbeta-LBD (unknown origin) transfected in CHOK1 cells; type: cell-based; details: Homo sapiens
[6] = biological target: T3, Oxysterols receptor LXR-alpha (Homo sapiens) (UniProt Q13133); assay: Agonist activity at GAL4 fused LXRalpha (unknown origin) transfected in CHOK1 cells at 10 uM after 24 hrs by luciferase reporter gene assay in presence of T0901317; type: cell-based; details: CHO-K1
T3 sequence (whole entry): T1 sequence (Q13133 whole entry)

[7] = biological target: T4, Oxysterols receptor LXR-beta (Homo sapiens) (UniProt P55055); assay: Agonist activity at GAL4 fused LXRbeta-LBD (unknown origin) transfected in CHOK1 cells at 10 uM after 24 hrs by luciferase reporter gene assay in presence of T0901317; type: cell-based; details: CHO-K1
T4 sequence (whole entry): T2 sequence (P55055 whole entry)

[8] = biological target: T3, Oxysterols receptor LXR-alpha (Homo sapiens); assay: Agonist activity at GAL4 fused LXRalpha (unknown origin) transfected in CHOK1 cells at 10 uM after 24 hrs by luciferase reporter gene assay; type: cell-based; details: CHO-K1
Mus musculus [9] = assay: Antiatherosclerosis activity in LDL receptor knock out mouse model assessed as […] in HDL-C levels at 10 mg/kg, po by HPLC analysis relative to control; type: functional; design: scale not given: the % may be the effect or the level left
Mus musculus [10] = assay: Antiatherosclerosis activity in LDL receptor knock out mouse model assessed as decrease in TC levels at 10 mg/kg, po by HPLC analysis relative to control; type: functional; design: scale not given: the % may be the effect or the level left
Mus musculus [11] = assay: Antiatherosclerosis activity in LDL receptor knock out mouse model assessed as decrease in area of lipid accumulation at 10 mg/kg, po by HPLC analysis relative to control; type: functional; design: scale not given: the % may be the effect or the level left
Mus musculus [12] = assay: Antiatherosclerosis activity in LDL receptor knock out mouse model assessed as increase in TG levels at 10 mg/kg, po by HPLC analysis relative to control; type: functional
Mus musculus [13] = assay: Antiatherosclerosis activity in LDL receptor knock out mouse model assessed as decrease in LDL-C levels at 10 mg/kg, po by HPLC analysis relative to control; type: functional; design: scale not given: the % may be the effect or the level left
[14] = Cmax in mouse plasma at 100 mg/kg, po measured up to 24 hrs by HPLC-LC-MS/MS analysis; type: ADME, organism-based; design: dose 100 mg/kg, route oral
[15] = AUC in mouse plasma at 100 mg/kg, po measured up to 24 hrs by HPLC-LC-MS/MS analysis; type: ADME, organism-based; design: dose 100 mg/kg, time < 24 hr, route oral
[16] = biological target: T4, Oxysterols receptor LXR-beta (Homo sapiens); assay: Agonist activity at GAL4 fused LXRbeta-LBD (unknown origin) transfected in CHOK1 cells at 10 uM after 24 hrs by luciferase reporter gene assay; type: cell-based; details: CHO-K1

SMILES | EC50 [1] | EC50 [3] | Ratio EC50 (CHO-K1) | Emax [6] | Emax [7] | Activity [8] | also measured
CCCc1cc(C(O)(C(F)(F)F)C(F)(F)F)ccc1Oc1ccc(C(=O)CN2C(=O)NC(C)(c3ccc(OC(C)C)cn3)C2=O)c(O)c1 (racemic) [listing 1 of 2 here] | 330 nM | 58 nM | – | – | – | – | microsomal CLint at 1 µM [2]: 24 µL/min/mg; microsomal CLint at 1 µM [4]: 7 µL/min/mg; microsomal CLint at 1 µM [5]: 11 µL/min/mg
CCCc1cc(C(O)(C(F)(F)F)C(F)(F)F)ccc1Oc1cccc(CCN2C(=O)NC(C)(c3ccc(OC(C)C)cc3)C2=O)c1 (stereo not drawn) | 2890 nM | 2850 nM | 1.01 | 23% | 126% | – | –
CCCc1cc(C(O)(C(F)(F)F)C(F)(F)F)cc(CCC)c1OCC#CCN1C(=O)NC(C)(c2ccc(OC(C)C)cc2)C1=O (stereo not drawn) | 860 nM | 610 nM | 1.41 | 27% | 149% | – | –
CCCc1cc(C(O)(C(F)(F)F)C(F)(F)F)ccc1Oc1ccc(CCN2C(=O)NC(C)(c3ccc(OC(C)C)cc3)C2=O)cc1 (stereo not drawn) | – | 1880 nM | > 5.32 | 1% | 223% | inactive | –
CCCc1cc(C(O)(C(F)(F)F)C(F)(F)F)ccc1Oc1cccc(CN2C(=O)NC(C)(c3ccc(OC(C)C)cc3)C2=O)c1 (stereo not drawn) | 1960 nM | 500 nM | 3.92 | 53% | 429% | – | –
CCCc1cc(C(O)(C(F)(F)F)C(F)(F)F)ccc1Oc1ccc(CCN2C(=O)NC(C)(c3ccc(OC(C)C)cc3)C2=O)c(OC)c1 (stereo not drawn) | – | 1660 nM | 6.02 | 0% | 534% | inactive | –
CCCc1cc(C(O)(C(F)(F)F)C(F)(F)F)ccc1Oc1ccc(C(=O)CN2C(=O)NC(C)(c3ccc(OC(C)C)cc3)C2=O)cc1 (stereo not drawn) | 360 nM | 120 nM | 3 | 46% | 236% | – | –
CCCc1cc(C(O)(C(F)(F)F)C(F)(F)F)ccc1Oc1ccc(C(O)CN2C(=O)NC(C)(c3ccc(OC(C)C)cc3)C2=O)cc1 (stereo not drawn) | – | 2330 nM | 4.29 | 5% | 176% | inactive | –
CCCc1cc(C(O)(C(F)(F)F)C(F)(F)F)ccc1Oc1ccc(C(=O)CN2C(=O)NC(C)(c3ccc(OC(C)C)cn3)C2=O)c(O)c1 (single isomer, unassigned; (-)) | – | – | – | 164% | 255% | – | –
CCCc1cc(C(O)(C(F)(F)F)C(F)(F)F)ccc1Oc1ccc(C(=O)CN2C(=O)NC(C)(c3ccc(OC(C)C)cn3)C2=O)c(O)c1 (single isomer, unassigned; (+)) [listing 1 of 2 here] | – | – | – | 25% | 269% | inactive | –
O=S(=O)(c1ccccc1)N(CC(F)(F)F)c1ccc(C(O)(C(F)(F)F)C(F)(F)F)cc1 [T091317] | – | – | – | – | – | – | Activity (Mus musculus [9]): 47%; Activity (Mus musculus [10]): 96%; Activity (Mus musculus [11]): 40%; Activity (Mus musculus [12]): 465%; Activity (Mus musculus [13]): 55%
CCCc1cc(C(O)(C(F)(F)F)C(F)(F)F)ccc1Oc1ccc(CN2C(=O)NC(C)(c3ccc(OC(C)C)cc3)C2=O)cc1 (stereo not drawn) | – | 1810 nM | > 5.52 | 0% | 22% | inactive | –
CCCc1cc(C(O)(C(F)(F)F)C(F)(F)F)cc(CCC)c1OCCCCN1C(=O)NC(C)(c2ccc(OC(C)C)cc2)C1=O (racemic) | – | – | – | – | – | – | Cmax [14]: 406 ng/mL; AUC at 24 h [15]: 3420 ng·h/mL
CCCc1cc(C(O)(C(F)(F)F)C(F)(F)F)ccc1Oc1ccc(C(=O)CN2C(=O)NC(C)(c3ccc(OC(C)C)cc3)C2=O)c(C)c1 (stereo not drawn) | 400 nM | 64 nM | 6.25 | 71% | 264% | – | –
CCCc1cc(C(O)(C(F)(F)F)C(F)(F)F)ccc1Oc1ccc(C(=O)CN2C(=O)NC(C)(c3ccc(OC(C)C)cn3)C2=O)c(O)c1 (racemic) [listing 2 of 2 here] | – | – | 5.69 | 68% | 329% | – | –
CCCc1cc(C(O)(C(F)(F)F)C(F)(F)F)ccc1Oc1ccc(C(=O)CN2C(=O)NC(C)(c3ccc(OC(C)C)cc3)C2=O)c(OC)c1 (stereo not drawn) | 3740 nM | 360 nM | 10.4 | 38% | 306% | – | –
CCCc1cc(C(O)(C(F)(F)F)C(F)(F)F)cc(CCC)c1OC/C=C\CN1C(=O)NC(C)(c2ccc(OC(C)C)cc2)C1=O (stereo not drawn) | – | – | – | 0% | 1% | inactive | Activity [16]: inactive
CCCc1cc(C(O)(C(F)(F)F)C(F)(F)F)cc(CCC)c1OC/C=C/CN1C(=O)NC(C)(c2ccc(OC(C)C)cc2)C1=O (stereo not drawn) | 1230 nM | 800 nM | 1.54 | 40% | 182% | – | –
CCCc1cc(C(O)(C(F)(F)F)C(F)(F)F)ccc1Oc1ccc(C(=O)CN2C(=O)NC(C)(c3ccc(OC(C)C)cn3)C2=O)c(O)c1 (single isomer, unassigned; (+)) [listing 2 of 2 here] | – | 2900 nM | – | – | – | – | –
CCCc1cc(C(O)(C(F)(F)F)C(F)(F)F)ccc1Oc1ccc(C(=O)CN2C(=O)NC(C)(c3ccc(OC(C)C)cc3)C2=O)c(O)c1 (stereo not drawn) | 340 nM | 110 nM | 3.09 | 55% | 348% | – | microsomal CLint at 1 µM [2]: 76 µL/min/mg; microsomal CLint at 1 µM [4]: 12 µL/min/mg; microsomal CLint at 1 µM [5]: 27 µL/min/mg
CCCc1cc(C(O)(C(F)(F)F)C(F)(F)F)ccc1Oc1ccc(CCN2C(=O)NC(C)(c3ccc(OC(C)C)cc3)C2=O)c(O)c1 (stereo not drawn) | – | 2870 nM | 3.48 | 1% | 284% | inactive | –
CCCc1cc(C(O)(C(F)(F)F)C(F)(F)F)ccc1Oc1ccc(CCN2C(=O)NC(C)(c3ccc(OC(C)C)cc3)C2=O)c(C)c1 (stereo not drawn) | 3140 nM | 700 nM | 4.89 | 53% | 615% | – | –
